Where a name gives a salt, the structure may show the parent alone.
Key:
Format in all cases: biochemical
[1] = molecular target: T1, catalytic domain of human gelatinase B (MMP-9) (Homo sapiens, UniProt P14780); assay: Enzyme activity of the catalytic domain of human gelatinase B (MMP-9), fluorogenic substrate; conditions: APMA-activated proenzyme, fluorescence 328/393 nm
T1 construct: enzyme activity of the catalytic domain of human gelatinase B (MMP-9); purchased Roche, Mannheim 1 758 896
Description: e) Determining the enzyme activity of the catalytic domain of human gelatinase B (MMP-9). […] Activation of the proenzyme:
(§1) 2 parts by volume of proenzyme were incubated, at 37° C. for 4 hours, with 1 part by volume of APMA solution. The APMA solution was prepared from a 10 mmol/l solution of p-aminophenylmercuric acetate in 0.1 mmol/l NaOH by diluting it with 3 parts by volume of tris/HCl buffer, pH 7.5 (see below). The pH was adjusted to between 7.0 and 7.5 by adding 1 mmol/l HCl. After the enzyme had been activated, it was diluted with the tris/HCl buffer to a concentration of 4.2 mU/ml.
In order to measure the activity of the enzyme, 10 μl of enzyme solution were incubated for 15 minutes with 10 μl of a 3% (v/v) buffered solution of dimethyl sulfoxide (reaction 1). In order to measure the enzyme inhibitor activity, 10 μl of enzyme solution were incubated with 10 μl of a 3% (v/v) buffered solution of dimethyl sulfoxide which contained the enzyme inhibitor (reaction 2). Both in the case of reaction 1 and in the case of reaction 2, the enzyme reaction was monitored by fluorescence spectroscopy (328 nm (extinction)/393 nm (emission)) after 10 ul of a 3% (v/v) aqueous solution of dimethyl sulfoxide, which contained 0.15 mmol of the substrate/l, had been added.
(§2) The enzyme activity was presented as increase in extinction/minute.
The inhibitory effect was calculated as percentage inhibition in accordance with the following formula: % inhibition=100−[(increase in extinction/minute in reaction 2)/(increase in extinction/minute in reaction 1)×100].
(§3) The IC50, that is the concentration of inhibitor which is required for 50% inhibition of the enzyme activity, was determined graphically by plotting the percentage inhibitions at different inhibitor concentrations.
The buffer solution contained 0.05% Brij (Sigma, Deisenhofen, Germany) and also 0.1 mol of tris/HCl/l, 0.1 mol of NaCl/l, 0.01 mol of CaCl2/l (pH=7.5). The enzyme solution contained 4.2 mU of the enzyme domain/ml. The substrate solution contained 0.15 mmol of the fluorogenic substrate (7-methoxycoumarin-4-yl)acetyl-Pro-Leu-Gly-Leu-3-(2′,4′-dinitrophenyl)-L-2,3-diaminopropionyl-Ala-Arg-NH2/ (Bachem, Heidelberg, Germany).

[2] = molecular target: T2, catalytic domain of human stromelysin (MMP-3) (Homo sapiens, UniProt P08254); assay: Enzyme activity of the catalytic domain of human stromelysin (MMP-3), fluorogenic substrate; conditions: catalytic domain prepared as described by Ye et al., fluorescence 328/393 nm
T2 construct: of the catalytic domain of human stromelysin (MMP-3) and neutrophilic collagenase (MMP-8); made in house
T2 sequence (P08254 100-272 limits assumed): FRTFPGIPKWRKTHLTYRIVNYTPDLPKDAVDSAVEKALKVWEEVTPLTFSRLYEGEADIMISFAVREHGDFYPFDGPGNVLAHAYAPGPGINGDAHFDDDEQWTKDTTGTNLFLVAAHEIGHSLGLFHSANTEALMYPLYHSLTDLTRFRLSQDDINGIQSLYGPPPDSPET
Description: b) Preparation, and determination of the enzyme activity, of the catalytic domain of human stromelysin (MMP-3) and neutrophilic collagenase (MMP-8).
The two enzymes, i.e. stromelysin (MMP-3) and neutrophilic collagenase (MMP-8), were prepared as described by Ye et al. (Biochemistry; 31 (1992) pages 11231–11235). In order to measure the enzyme activity or the inhibitory effect on the enzyme, 10 μl of enzyme solution were incubated, for 15 minutes, with 10 μl of a 3% (v/v) buffered solution of dimethyl sulfoxide which contained the enzyme inhibitor, where appropriate. After 10 μl of a 3% (v/v) aqueous solution of dimethyl sulfoxide which contained 1 mmol of substrate/l had been added, the enzyme reaction was monitored by fluorescence spectroscopy (328 nm (ex)/393 nm(em)).
The enzyme activity is presented as increase in extinction/minute.
The buffer solution contained 0.05% Brij (Sigma, Deisenhofen, Germany) as well as 0.1 mol of tris/HCl/l, 0.1 mol of NaCl/l, 0.01 mol of CaCl2/l and 0.1 mol of piperazine-N,N′-bis[2-ethanesulfonic acid]/l (pH=7.5). The MMP-3 enzyme solution contained 2.3 μg, and the MMP-8 enzyme solution contained 0.6 μg, of one of the enzyme domains/ml prepared as described by Ye et al. The substrate solution contained 1 mmol of the fluorogenic substrate (7-methoxycoumarin-4-yl)acetyl-Pro-Leu-Gly-Leu-3-(2′,4′-dinitrophenyl)-L-2,3-diaminopropionyl-Ala-Arg-NH2/l (Bachem, Heidelberg, Germany).

[3] = molecular target: T3, catalytic domain of human collagenase-3 (MMP-13) (Homo sapiens, UniProt P45452); assay: Enzyme activity of the catalytic domain of human collagenase-3 (MMP-13), fluorogenic substrate; conditions: APMA-activated proenzyme, fluorescence 328/393 nm
T3 construct: enzyme activity of the catalytic domain of human collagenase-3 (MMP-13); purchased INVITEK, Berlin 30 100 803
Description: c) Determining the enzyme activity of the catalytic domain of human collagenase-3 (MMP-13).
Activation of the proenzyme:
as §1, with “for 1.5” for “for 4”, “diluting the solution” for “diluting it”, “of 1.67 μg/ml.” for “of 4.2 mU/ml.”
In order to measure the enzyme activity, 10 μl of enzyme solution were incubated for 15 minutes with 10 μl of a 3% (v/v) buffered solution of dimethyl sulfoxide (reaction 1). In order to measure the enzyme inhibitor activity, 10 μl of enzyme solution were incubated with 10 μl of a 3% (v/v) buffered solution of dimethyl sulfoxide which contained the enzyme inhibitor (reaction 2).
Both in the case of reaction 1 and in the case of reaction 2, the enzyme reaction was monitored by fluorescence spectroscopy (328 nm (extinction)/393 nm (emission)) after 10 μl of a 3% (v/v) aqueous solution of dimethyl sulfoxide which contained 0.075 mmol of the substrate/1 had been added.
as §2
The effect of the inhibitor was calculated as a percentage inhibition in accordance with the following formula: % inhibition=100−[(increase in extinction/minute in reaction 2)/(increase in extinction/minute in reaction 1)×100].
as §3
The buffer solution contained 0.05% Brij (Sigma, Deisenhofen, Germany) and also 0.1 mol of tris/HCl/l, 0.1 mol of NaCl/l, 0.01 mol of CaCl2/l (pH=7.5). The enzyme solution contained 1.67 μg of the enzyme domain/ml. The substrate solution contained 0.075 mmol of the fluorogenic substrate (7-methoxycoumarin-4-yl)acetyl-Pro-Leu-Gly-Leu-3-(2′,4′-dinitrophenyl)-L-2,3-diaminopropionyl-Ala-Arg-NH2/1 (Bachem, Heidelberg, Germany).

T1 sequence (P14780 107-707 limits assumed): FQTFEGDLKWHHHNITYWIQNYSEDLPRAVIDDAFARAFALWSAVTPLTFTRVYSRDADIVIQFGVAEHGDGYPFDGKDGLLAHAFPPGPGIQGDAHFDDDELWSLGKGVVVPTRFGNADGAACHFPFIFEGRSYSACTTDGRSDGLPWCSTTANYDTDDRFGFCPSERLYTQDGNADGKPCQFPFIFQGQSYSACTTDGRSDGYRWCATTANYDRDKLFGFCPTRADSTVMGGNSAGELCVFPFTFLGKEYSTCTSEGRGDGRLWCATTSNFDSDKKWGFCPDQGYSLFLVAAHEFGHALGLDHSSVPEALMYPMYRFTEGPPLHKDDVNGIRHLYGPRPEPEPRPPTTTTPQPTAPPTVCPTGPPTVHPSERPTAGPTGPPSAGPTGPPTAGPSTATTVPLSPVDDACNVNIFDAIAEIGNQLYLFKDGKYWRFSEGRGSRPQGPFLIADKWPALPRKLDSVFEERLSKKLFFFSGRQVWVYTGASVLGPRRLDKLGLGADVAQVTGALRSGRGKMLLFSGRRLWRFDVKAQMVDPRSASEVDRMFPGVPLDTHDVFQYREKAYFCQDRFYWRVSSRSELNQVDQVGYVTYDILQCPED

O=C(NO)[C@H]1[C@H]2CCCC[C@H]2CCN1S(=O)(=O)c1ccc(Oc2ccc(F)cc2)cc1 [Example 21, 2-[4-(4-fluorophenoxy)benzenesulfonyl]decahydroisoquinoline-1-(N-hydroxy)carboxamide]
IC50 [1]: 0.45 nM | IC50 [2]: 23 nM | IC50 [3]: 1.3 nM

O=C(NO)C1C2CCCCC2CCN1S(=O)(=O)c1ccc(Oc2ccc(OC(F)(F)F)cc2)cc1 (stereo not drawn) [Example 23, 2-[4-(4-trifluoromethoxyphenoxy)benzenesulfonyl]decahydroisoquinoline-1-(N-hydroxy)carboxamide]
IC50 [1]: 2 nM | IC50 [2]: 50 nM | IC50 [3]: 2.1 nM

O=C(NO)C1C2CCCCC2CCN1S(=O)(=O)c1ccc(Oc2ccc(OCC(F)(F)F)cc2)cc1 (stereo not drawn) [Example 13, 2-{4-[4-(2,2,2-trifluoroethoxy)phenoxy]benzenesulfonyl}decahydroisoquinoline-1-(N-hydroxy)carboxamide]
IC50 [1]: 2 nM | IC50 [2]: 30 nM | IC50 [3]: 2 nM

O=C(NO)C1C2CCCCC2CCN1S(=O)(=O)c1ccc(Oc2ccncc2)cc1 (stereo not drawn) [Example 9, 2-[4-(pyridin-4-yloxy)benzenesulfonyl]decahydroisoquinoline-1-(N-hydroxy)carboxamide trifluoroacetate]
IC50 [1]: 12 nM | IC50 [2]: 160 nM | IC50 [3]: 21 nM

O=C(NO)[C@H]1[C@H]2CCCC[C@H]2CCN1S(=O)(=O)c1ccc(-c2ccc(Cl)cc2)cc1 (single isomer, unassigned) [Example 14, 2-(4′-chlorobiphenyl-4-sulfonyl)decahydroisoquinoline-1-(N-hydroxy)-carboxamide]
IC50 [1]: 3.5 nM | IC50 [2]: 25 nM | IC50 [3]: 2 nM

COc1ccc(Oc2ccc(S(=O)(=O)N3CCC4CCCCC4C3C(=O)NO)cc2)cc1 (stereo not drawn) [Example 11, 2-[4-(4-methoxyphenoxy)benzenesulfonyl]decahydroisoquinoline-1-(N-hydroxy)carboxamide]
IC50 [1]: 2 nM | IC50 [2]: 25 nM | IC50 [3]: 1.5 nM

N#Cc1ccc(Oc2ccc(S(=O)(=O)N3CCC4CCCCC4C3C(=O)NO)cc2)cc1 (stereo not drawn) [Example 26, 2-[4-(4-cyanophenoxy)benzenesulfonyl]decahydroisoquinoline-1-(N-hydroxy)carboxamide]
IC50 [1]: 3 nM | IC50 [2]: 41 nM | IC50 [3]: 3 nM

O=C(NO)C1C2CCCCC2CCN1S(=O)(=O)CCc1ccc(-c2ccc(Cl)cc2)cc1 (stereo not drawn) [Example 7, 2-[2-(4′-chlorobiphenyl-4-yl)ethanesulfonyl]decahydroisoquinoline-1-(N-hydroxy)carboxamide]
IC50 [1]: 3 nM | IC50 [2]: 65 nM | IC50 [3]: 7 nM

O=C(NO)C1C2CCCCC2CCN1S(=O)(=O)c1ccc(-c2ccc(OC(F)(F)F)cc2)cc1 (stereo not drawn) [Example 19, 2-(4′-trifluoromethoxybiphenyl-4-sulfonyl)decahydroisoquinoline-1-(N-hydroxy)carboxamide]
IC50 [1]: 5 nM | IC50 [2]: 59 nM | IC50 [3]: 3 nM

O=C(NO)C1C2CCCCC2CCN1S(=O)(=O)c1ccc(Oc2ccccc2)nc1 (stereo not drawn) [Example 5, 2-(6-phenoxypyridine-3-sulfonyl)decahydroisoquinoline-1-(N-hydroxy)-carboxamide trifluoroacetate]
IC50 [1]: 1.2 nM | IC50 [2]: 28 nM | IC50 [3]: 1.8 nM

O=C(NO)C1C2CCCCC2CCN1S(=O)(=O)c1ccc(-c2ccc(Cl)cc2)cc1 (stereo not drawn) [Example 3, 2-(4′-chlorobiphenyl-4-sulfonyl)decahydroisoquinoline-1-(N-hydroxy)-carboxamide]
IC50 [1]: 100 nM | IC50 [2]: 40 nM | IC50 [3]: 3 nM

O=C(NO)[C@@H]1[C@@H]2CCCC[C@@H]2CCN1S(=O)(=O)c1ccc(-c2ccc(Cl)cc2)cc1 (single isomer, unassigned) [Example 15, 2-(4′-chlorobiphenyl-4-sulfonyl)decahydroisoquinoline-1-(N-hydroxy)-carboxamide]
IC50 [1]: 4000 nM | IC50 [2]: 10000 nM | IC50 [3]: 2300 nM

O=C(NO)C1C2CCCCC2CCN1S(=O)(=O)c1ccc(Oc2ccc(F)cc2)cc1 (stereo not drawn) [Example 20, 2-[4-(4-fluorophenoxy)benzenesulfonyl]decahydroisoquinoline-1-(N-hydroxy)carboxamide]
IC50 [1]: 2 nM | IC50 [2]: 26 nM | IC50 [3]: 2 nM

From US7205315B2, “Bicyclic imino acid derivatives as inhibitors of matrix metalloproteinases” (Sanofi-Aventis Deutschland GmbH, priority 2003, dated 2007)
